Where two headings read alike, the source gives them in different places.
Columns and labels:
[1] = target: T1, human plasmin (Homo sapiens, UniProt P00747); experiment: Antiplasmin activity: inhibition of S-2251 decomposition; format: biochemical; details: Table 2; substrate S-2251, pH 7.4, 37° C.
Method: An inhibitor sample is dissolved in a 0.05 M Tris-hydrochloric acid buffer solution (pH=7.4) to make the total volume to 400 μl. […] Then, 50 μl of a 0.2 casein unit/ml human plasmin is added and the mixture is incubated at a temperature of 37° C. for 4 minutes. Thereafter, the reaction is stopped by adding 50 μl of 50% acetic acid.
Thus, the concentration I50 (μmol) of the inhibitor sample, at which the absorbance is one half (i.e., 1/2) of that obtained in the absence of the inhibitor, is determined.

[2] = target: T1, human plasmin; experiment: Antiplasmin activity: inhibition of fibrin decomposition; format: biochemical; details: Table 2, pH 7.4, 37° C., read-out: Plasmin Fibrin I50 (concentration doubling fibrin dissolution time)
Method: (i) Determination of inhibition activity for fibrin decomposition
An inhibitor sample is dissolved in a 0.18 M borate-physiological salt buffer solution (pH=7.4) to make the total volume to 600 μl. To this buffer solution, 200 μl of a 0.2% bovine fibrinogen, 100 μl of a 0.3 casein unit/ml human plasmin solution, and 100 μl of a 50 unit/ml bovine thrombin solution, all dissolved in the above-mentioned buffer, are added at a temperature of 37° C. in a constant temperature bath. Then, the dissolution time of the fibrin mass formed above is determined.

[3] = target: T2, bovine thrombin (Bos taurus, UniProt P00735); experiment: Antithrombin activity: inhibition of fibrin formation (fibrinogen); format: biochemical
T2 construct: a 0.2 unit/ml bovine thrombin solution
Method: (i) Determination of inhibition activity against fibrin formation
An inhibitor sample is dissolved in a 0.18 M borate-physiological salt buffer solution (pH= 7.4) to make the total volume to 500 μl. […] Thus, a coagulation time is determined. The inhibitor concentration I50 (μmol), at which the coagulation time obtained in the absence of the inhibitor is extended twice, is determined.

[4] = target: T3, bovine trypsin (Bos taurus, UniProt P00760); experiment: Antitrypsin activity: inhibition of S-2238 decomposition; format: biochemical; details: Table 2; substrate S-2238, pH 8.1, 37° C.; read-out: Trypsin S-2238 I50
T3 sequence (P00760 24-246): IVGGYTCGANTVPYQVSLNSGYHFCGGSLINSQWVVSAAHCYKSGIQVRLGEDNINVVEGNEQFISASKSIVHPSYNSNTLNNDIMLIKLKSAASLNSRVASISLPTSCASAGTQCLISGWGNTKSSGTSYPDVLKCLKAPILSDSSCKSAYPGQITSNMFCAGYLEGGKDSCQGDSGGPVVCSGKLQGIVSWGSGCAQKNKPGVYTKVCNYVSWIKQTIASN
Method: Determination of inhibition activity against S-2238 decomposition
An inhibitor sample is dissolved in a 0.05 M Tris-imidazole buffer solution (pH=8.1) and 125 μl of a 1 mM S-2238 solution is added to make the total volume to 1.20 ml. The mixture is incubated at a temperature of 37° C. for 5 minutes in a constant temperature bath. To this mixture, 0.05 ml of bovine trypsin is added and the absorbance, at 405 nm, of the p-nitroaniline formed per minute is determined at a temperature of 37° C. by using the so-called initial velocity method. Thus, the concentration I50 (μmol) of a inhibitor sample, at which the absorbance is one half (i.e., 1/2) of that obtained in the absence of the inhibitor sample, is determined.

[5] = target: human plasma kallikrein (Homo sapiens, UniProt P03952); experiment: Anti-plasma kallikrein activity: inhibition of S-2302 decomposition; format: biochemical; details: Table 2; substrate S-2302, pH 7.8, 37° C.; read-out: Plasma Kallikrein S-2302 I50
Sequence of human plasma kallikrein (P03952 391-638 limits assumed): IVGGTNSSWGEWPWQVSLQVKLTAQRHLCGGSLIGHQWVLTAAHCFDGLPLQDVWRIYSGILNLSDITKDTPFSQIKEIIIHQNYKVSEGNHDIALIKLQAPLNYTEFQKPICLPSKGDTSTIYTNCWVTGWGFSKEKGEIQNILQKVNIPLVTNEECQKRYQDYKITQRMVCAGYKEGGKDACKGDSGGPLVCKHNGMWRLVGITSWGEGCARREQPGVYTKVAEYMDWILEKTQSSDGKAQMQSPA
Sequence of human plasma kallikrein (P03952 20-390 limits assumed): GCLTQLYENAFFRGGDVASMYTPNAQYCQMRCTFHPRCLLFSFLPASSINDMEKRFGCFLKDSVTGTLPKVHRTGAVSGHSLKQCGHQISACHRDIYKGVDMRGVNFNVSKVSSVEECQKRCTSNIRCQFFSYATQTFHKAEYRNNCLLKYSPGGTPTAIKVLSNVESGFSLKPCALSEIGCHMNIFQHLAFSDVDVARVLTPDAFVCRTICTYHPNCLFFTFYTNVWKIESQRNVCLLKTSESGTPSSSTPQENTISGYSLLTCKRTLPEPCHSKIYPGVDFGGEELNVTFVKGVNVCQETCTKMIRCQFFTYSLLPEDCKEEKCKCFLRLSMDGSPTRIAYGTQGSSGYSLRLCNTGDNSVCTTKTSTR
Method: Determination of inhibition activity for S-2302 decomposition
(§1) An inhibitor sample is dissolved in a 0.05 M Tris-hydrochloric acid buffer solution (pH=7.8) to make the total volume to 400 μl. To this solution, 50 μl of a 2 mM S-2302 solution is added and the mixture is incubated at a temperature of 37° C. for 5 minutes in a constant temperature bath. Then, 50 μl of a 0.12 unit/ml human plasma kallikrein is added and the mixture is incubated at a temperature of 37° C. for 5 minutes. Thereafter, 50 μl of 50% acetic acid is added to terminate the reaction. The absorbance of the p-nitroaniline formed in the reaction mixture is measured at 405 nm. Thus, the concentration I50 (μmol) of the inhibitor sample, at which the absorbance is one half (i.e., 1/2) of that obtained in the absence of the inhibitor sample, is determined.

[6] = target: human urokinase (Homo sapiens, UniProt P00749); experiment: biochemical; details: Table 2; substrate S-2444, pH 8.8, 37° C.; read-out: Urokinase S-2444 I50
Method: Determination of inhibition activity for S-2444 decomposition
as §1, with “solution (pH=8.8)” for “solution (pH=7.8)”, “a 1” for “a 2”, “mM S-2444” for “mM S-2302”, “a 500” for “a 0.12”, “human urokinase” for “human plasma kallikrein”

[7] = Table 2, bovine fibrinogen, pH 7.4, 37° C., read-out: Thrombin Fibrinogen I50 (concentration doubling coagulation time)

T1 sequence (P00747 581-810 limits assumed): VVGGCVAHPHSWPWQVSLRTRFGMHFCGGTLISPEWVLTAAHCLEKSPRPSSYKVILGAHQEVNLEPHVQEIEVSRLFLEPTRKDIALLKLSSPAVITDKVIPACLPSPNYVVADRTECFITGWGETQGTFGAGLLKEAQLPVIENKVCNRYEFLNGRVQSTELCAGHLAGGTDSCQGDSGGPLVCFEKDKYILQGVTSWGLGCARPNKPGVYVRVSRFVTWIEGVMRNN
T1 sequence (P00747 97-580 limits assumed): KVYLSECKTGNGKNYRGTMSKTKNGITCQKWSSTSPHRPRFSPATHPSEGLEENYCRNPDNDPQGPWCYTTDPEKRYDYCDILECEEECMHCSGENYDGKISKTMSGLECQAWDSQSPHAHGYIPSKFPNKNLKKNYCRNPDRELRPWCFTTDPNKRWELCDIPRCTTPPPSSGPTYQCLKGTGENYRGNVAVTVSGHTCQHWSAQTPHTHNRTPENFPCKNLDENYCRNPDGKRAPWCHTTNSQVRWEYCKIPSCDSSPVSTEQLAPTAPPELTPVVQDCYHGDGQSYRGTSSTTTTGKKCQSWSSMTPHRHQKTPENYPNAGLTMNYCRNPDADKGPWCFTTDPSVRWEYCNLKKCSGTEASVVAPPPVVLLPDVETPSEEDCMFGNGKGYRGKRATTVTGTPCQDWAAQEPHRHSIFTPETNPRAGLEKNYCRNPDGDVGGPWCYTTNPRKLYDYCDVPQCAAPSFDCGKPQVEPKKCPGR

Compound | IC50 [1] [µM] | IC50 [2] [µM] | IC50 [3, 7] [µM] | IC50 [4] [µM] | IC50 [5] [µM] | IC50 [6] [µM] | IC50 [3] [µM]
NC[C@H]1CC[C@H](C(=O)NC(Cc2cccc(Oc3ccccc3)c2)C(=O)N2CCOCC2)CC1 (stereo partly drawn) [Compound 19] | > 1000 | > 1000 | > 1000 | > 150 | > 1000 | > 1000 | –
COC(=O)[C@H]1CCCN1C(=O)C(Cc1cccc(Oc2ccccc2)c1)NC(=O)[C@H]1CC[C@H](CN)CC1 (stereo partly drawn) [Compound 20] | > 100 | > 60 | > 1000 | > 150 | > 1000 | > 1000 | –
COCCCNC(=O)C(Cc1cccc(C(=O)c2ccccc2)c1)NC(=O)[C@H]1CC[C@H](CN)CC1 (stereo partly drawn) [Compound 23] | 750 | 620 | > 1000 | 8.2 | 350 | > 500 | –
NC[C@H]1CC[C@H](C(=O)NC(Cc2cccc(C(=O)c3ccccc3)c2)C(=O)N2CCOCC2)CC1 (stereo partly drawn) [Compound 24] | > 1000 | 700 | > 1000 | > 150 | > 1000 | > 1000 | –
CCOC(=O)C1CCCCN1C(=O)C(Cc1cccc(Oc2ccc(Br)cn2)c1)NC(=O)[C@H]1CC[C@H](CN)CC1 (stereo partly drawn) [Compound 26] | > 1000 | 400 | > 1000 | > 150 | > 1000 | > 1000 | –
NC[C@H]1CC[C@H](C(=O)NC(Cc2cccc(Oc3ccc(Br)cn3)c2)C(=O)N2CCOCC2)CC1 (stereo partly drawn) [Compound 27] | 280 | 440 | > 1000 | > 150 | > 1000 | > 1000 | –
COCCCNC(=O)C(Cc1cccc(C(F)(F)F)c1)NC(=O)[C@H]1CC[C@H](CN)CC1 (stereo partly drawn) [Compound 28] | > 1000 | 260 | > 1000 | 87 | > 1000 | > 1000 | –
CCOC(=O)C1CCN(C(=O)C(Cc2cccc(Oc3ccccc3)c2)NC(=O)[C@H]2CC[C@H](CNC(=N)N)CC2)CC1 (stereo partly drawn) [Compound 31] | 160 | > 100 | > 100 | > 150 | > 100 | > 500 | –
CC(=O)c1ccc(NC(=O)C(Cc2cccc(Oc3ccccc3)c2)NC(=O)c2ccc(NC(=N)N)cc2)cc1 (stereo not drawn) [Compound 32] | 120 | > 25 | > 25 | 15 | 2.2 | 100 | –
CCOC(=O)c1cccc(NC(=O)C(Cc2cccc(Oc3ccccc3)c2)NC(=O)c2ccc(NC(=N)N)cc2)c1 (stereo not drawn) [Compound 33] | > 100 | > 25 | – | 42 | 4.5 | > 200 | > 25

Reference: patent publication US4873253A, “Phenylalanine derivative and proteinase inhibitor” (Okamoto; Shosuke, priority 1987, dated 1989)
